The values that follow come from patent publication US9943542B2, “Compositions and methods for obtaining an improved lung function” (PHARMALUNDENSIS AB, priority 2013, dated 2018).

Series [1] concerns patients with stable chronic bronchitis. The following applies: cited from earlier work.
The target in series [2] is human sodium/iodide symporter (Homo sapiens, UniProt Q92911). The following applies: versus perchlorate, on a molar concentration basis in serum; cited from earlier work.
Series [3] relates to patients with COPD. The following applies: administered orally; cited from earlier work.
The subject of series [4] is lung function (FEV1) of man with moderately severe COPD. The series can be described thus: Sequential 2-week treatments in one person with moderately severe COPD. It is filed as in vivo, human. Here is the method:
After having stable lung function for around a month, they took 2.73 g activated charcoal in water daily for 2 weeks. […] After that, […] instead took 270 mg I2 daily in a vegetable capsule daily for 2 weeks. […] Thereafter, […] instead took 100 mg potassium perchlorate daily for 2 weeks. […] Following this, […] instead took 3 g IAC (prepared according to example 2, and consisting of 2.73 g activated charcoal with 270 mg iodine) daily for 2 weeks. […] Finally, they took a combination of 100 mg potassium perchlorate and 3 g IAC daily for 2 weeks.

Series [5] has as its target T1, sodium/iodide symporter (NIS) (Homo sapiens, UniProt Q92911).
T1 construct: host or cells: thyroid gland of human subjects (in vivo)
T1 sequence (Q92911 1-643): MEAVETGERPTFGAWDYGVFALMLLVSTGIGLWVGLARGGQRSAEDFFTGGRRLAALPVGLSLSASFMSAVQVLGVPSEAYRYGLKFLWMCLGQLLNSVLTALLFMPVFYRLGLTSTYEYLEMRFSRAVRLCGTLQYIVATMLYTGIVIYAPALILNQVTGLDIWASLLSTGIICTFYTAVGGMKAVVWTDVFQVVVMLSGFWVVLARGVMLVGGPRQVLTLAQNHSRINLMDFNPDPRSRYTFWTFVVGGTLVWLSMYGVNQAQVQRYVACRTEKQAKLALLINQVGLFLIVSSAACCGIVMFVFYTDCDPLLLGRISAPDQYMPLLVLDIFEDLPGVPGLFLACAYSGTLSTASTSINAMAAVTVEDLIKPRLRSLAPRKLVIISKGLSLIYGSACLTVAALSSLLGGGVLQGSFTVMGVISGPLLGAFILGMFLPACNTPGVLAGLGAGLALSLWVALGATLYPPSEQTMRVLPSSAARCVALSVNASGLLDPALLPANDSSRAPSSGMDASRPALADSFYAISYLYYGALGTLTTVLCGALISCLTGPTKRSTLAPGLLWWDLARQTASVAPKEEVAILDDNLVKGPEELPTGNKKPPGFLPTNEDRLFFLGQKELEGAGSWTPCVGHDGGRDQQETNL
The note with it: humans; cited from earlier work.

For series [6] the following is noted: in vivo; cited from earlier work.

For Iodinated glycerol, the “improvement in pulmonary function” value in series [1] (16 weeks treatment) is “lack significant improvement”. Also, the side effects result in series [1] (human, in vivo) is “side effects such as iodine poisoning”.

Take `N#C[S-].[Na+]` [thiocyanate, Thiocyanate]: the “relative potency for inhibiting iodide uptake by the sodium/iodide symporter” value in series [2] is recorded as “lower than that of perchlorate”.

Regarding `II` [I2, iodine], the “effect on lung function” value in series [3] is recorded as “does not improve the lung function”. Besides, the “effect on lung function (FEV1), in words” value in series [4] (in vivo) is “did not improve their lung function”.

Consider `[O-][Cl+3]([O-])([O-])O` [potassium perchlorate], for which the “level that can temporarily inhibit the thyroid gland's ability to adsorb iodine from the bloodstream” value in series [5] is given as “above 0.007 mg/(kg·d)”. The “effect on lung function (FEV1), in words” value in series [4] (daily for 2 weeks, one patient) is given as “did not improve the lung function at all”. Besides, in series [6], the “metabolism and storage in the body” value was “neither metabolised nor stored in the body”.
